Reference: EP0745595A1, “3-(3-Aryloxyphenyl)-1-(substituted methyl)-s-triazine-2,4,6-oxo or thiotrione herbicidal agents” (American Cyanamid Company, priority 1995, dated 1996)

Legend:
Type in all cases: in vivo
SAGITTARIA PYGMAEA, L. = experiment: Preemergence weed control under flooded paddy conditions, SAGPY (Arrowhead (Pygmaea)); settings: pre-weed
How it was run: (§1)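 Visual 0-9 score (stand, vigor, malformation, size, chlorosis, appearance vs untreated control) taken 3-4 wk after treatment. Test compounds were added into flood water (1.5-3 cm over silt loam) as 50/50 v/v aqueous/acetone, equivalent to about 0.5-0.063 kg/ha a.i.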

[1] = system: GLYCINE MAX(L) MERR. CV. WILLIAMS; experiment: Postemergence herbicidal evaluation, GLXMAW (Soybean, Williams); parameters: key to GLXMAW rating / Herbicidal effect rating, GLXMAW / GLXMAW: 0-9 visual rating scale vs untreated control
How it was run: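 Herbicidal injury to Williams soybean was assessed after a postemergence spray of two-week-old seedlings grown in jiffy flats. Compounds were dispersed in an acetone/water (50/50) mixture with 0.5% TWEEN®20 surfactant and applied at 40 psi. After four to five weeks in the greenhouse, stand, vigor, malformation, size and chlorosis were compared against a control on a 0-9 scale, and results from replicate tests were averaged.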

[2] = system: ORYZA SATIVA, L. TEBONNET; experiment: Postemergence herbicidal evaluation, ORYSAT (Rice, Tebonnet); parameters: key: 0-9 visual rating scale vs untreated control
Procedure: In the tests, seedling plants are grown in jiffy flats for about two weeks. The test compounds are dispersed in 50/50 acetone/water mixtures containing 0.5% TWEEN®20, a polyoxyethylene sorbitan monolaurate surfactant of Atlas Chemical Industries, in sufficient quantities to provide the equivalent of about 0.125 kg to 0.500 kg per hectare of active compound when applied to the plants through a spray nozzle operating at 40 psi for a predetermined time. After spraying, the plants are placed on greenhouse benches and are cared for in the usual manner, commensurate with conventional greenhouse practices. From four to five weeks after treatment, the seedling plants are examined and rated according to the rating system set forth below. Where more than one test is involved for a given compound, the data are averaged.
Plant species employed in these evaluations are reported by header abbreviation, common name and scientific name.
Results of herbicide evaluation are expressed on a rating scale (0-9). The scale is based upon a visual observation of plant stand, vigor, malformation, size, chlorosis and overall plant appearance as compared with a control.

[3] = system: CYPERUS SEROTINUS, ROTTB.; experiment: Preemergence weed control under flooded paddy conditions, CYPSE (Flatsedge); settings: pre-weed
How it was run: as §1

[4] = system: SETARIA VIRIDIS, (L) BEAU; experiment: Postemergence herbicidal evaluation, SETVI (Foxtail, Green); parameters: key to SETVI rating / Herbicidal effect rating, SETVI / SETVI: 0-9 visual rating scale vs untreated control
How it was run: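 Ratings (0-9) reflect visual stand, vigor, malformation, size and chlorosis compared with untreated plants, assessed 4-5 weeks after postemergence spraying. Treatment was applied to roughly two-week-old seedlings at about 0.125-0.500 kg/ha in acetone/water with 0.5% Tween 20; replicate tests were averaged.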

[5] = system: ECHINOCHLOA ORYZOIDES (ARD.)FRITSCH; experiment: Preemergence weed control under flooded paddy conditions, ECHORC (Watergrass (Calif.)); settings: pre-weed
How it was run: as §1

[…], PRESL. = Preemergence weed control under flooded paddy conditions, MOOVA (Monochoria); settings: for Herbicidal effect rating, MOOVA: preemergence, 3-4 weeks after treatment; for MOOVA: pre-weed
How it was run: as §1

[6] = system: GLYCINE MAX(L) MERR. CV. WILLIAMS; experiment: Preemergence herbicidal evaluation, GLXMAW (Soybean, Williams); settings: rated four to five weeks after treatment
How it was run: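 Injury scored visually (0–9; stand, vigor, malformation, size, chlorosis) versus untreated control, four to five weeks post-treatment. Application: aqueous acetone spray onto freshly planted soil cups, equivalent to about 0.125 to 0.50 kg/ha, plants then kept under standard greenhouse care.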

CYPERUS IRIA = experiment: Preemergence weed control under flooded paddy conditions, CYPIR (Rice Flatsedge); settings: for Herbicidal effect rating, CYPIR: preemergence, 3-4 weeks after treatment; for CYPIR: pre-weed
How it was run: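 This preemergence test mimicked flooded paddy conditions: rice flatsedge propagules were sown in the upper 0.5 cm of silt loam in undrained 32 oz. containers (10.5 cm diameter), with water held 1.5 to 3 cm over the soil. After normal greenhouse care, plants were scored 0-9 for stand, vigor, malformation, size, chlorosis and appearance relative to controls.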

CASSIA OBTUSIFOLIA, L. = experiment: Preemergence herbicidal evaluation, CASOB (Sicklepod)
How it was run: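 Preemergence herbicidal activity against sicklepod was assessed by planting seed mixed with potting soil atop about one inch of soil in pint cups. After treatment the cups were watered and handled per standard greenhouse practice. Tests ended four to five weeks later, with plant stand, vigor, malformation, size, chlorosis and overall appearance scored 0-9 relative to a control.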

SMILES	SAGPY (SAGITTARIA PYGMAEA, L.; Rate 0.250 kg/ha)	GLXMAW ([1]; Rate 0.016 kg/ha)	GLXMAW ([1]; Rate 0.032 kg/ha)	GLXMAW ([1]; Rate 0.063 kg/ha)	GLXMAW ([1]; Rate 0.125 kg/ha)	GLXMAW ([1]; Rate 0.250 kg/ha)	GLXMAW ([1]; Rate 0.500 kg/ha)	ORYSAT ([2]; Rate 0.016 kg/ha)	ORYSAT ([2]; Rate 0.032 kg/ha)	ORYSAT ([2]; Rate 0.063 kg/ha)	ORYSAT ([2]; Rate 0.125 kg/ha)	ORYSAT ([2]; Rate 0.250 kg/ha)	ORYSAT ([2]; Rate 0.500 kg/ha)	CYPSE ([3]; Rate 0.250 kg/ha)	SETVI ([4]; Rate 0.016 kg/ha)	SETVI ([4]; Rate 0.032 kg/ha)	SETVI ([4]; Rate 0.063 kg/ha)	SETVI ([4]; Rate 0.125 kg/ha)	SETVI ([4]; Rate 0.250 kg/ha)	SETVI ([4]; Rate 0.500 kg/ha)	also measured
Cn1c(=O)[nH]c(=O)n(-c2cc(Oc3ccc(C(F)(F)F)cc3Cl)ccc2Cl)c1=O [F, reference compound]	0.0	3.5	3.5	4.5	4.0	5.5	5.5	1.5	1.5	2.5	3.0	3.0	3.0	0.0	0.0	1.0	3.0	2.0	3.0	3.0	SAGPY (SAGITTARIA PYGMAEA, L.; Rate 0.031 kg/ha): 0.0; SAGPY (SAGITTARIA PYGMAEA, L.; Rate 0.063 kg/ha): 0.0; SAGPY (SAGITTARIA PYGMAEA, L.; Rate 0.125 kg/ha): 0.0; CYPSE ([3]; Rate 0.031 kg/ha): 0.0; CYPSE ([3]; Rate 0.063 kg/ha): 0.0; CYPSE ([3]; Rate 0.125 kg/ha): 0.0; ECHORC ([5]; Rate 0.031 kg/ha): 0.0; ECHORC ([5]; Rate 0.063 kg/ha): 0.0; ECHORC ([5]; Rate 0.125 kg/ha): 0.0; ECHORC ([5]; Rate 0.250 kg/ha): 0.0
COC(=O)Cn1c(=O)n(C)c(=O)n(-c2cc(Oc3ccc(C(F)(F)F)cc3Cl)ccc2Cl)c1=O [Compound 39, Methyl 3-{[2-chloro-5-(2-chloro-α,α,α-trifluoro-p-tolyl)oxy]phenyl}tetrahydro-5-methyl-2,4,6-trioxo-s-triazine-1(2H)-acetate]	–	3.8	4.5	5.3	5.5	6.3	7.0	2.3	3.3	4.8	4.3	4.8	4.5	–	2.5	4.5	3.5	4.5	8.0	9.0	Herbicidal effect rating, MOOVA ([…], PRESL.; 0.063 kg/ha): 9.0; Herbicidal effect rating, MOOVA ([…], PRESL.; 0.125 kg/ha): 9.0; Herbicidal effect rating, MOOVA ([…], PRESL.; 0.250 kg/ha): 9.0; Herbicidal effect rating, MOOVA ([…], PRESL.; 0.500 kg/ha): 9.0; MOOVA ([…], PRESL.; Rate 0.031 kg/ha): 9.0; MOOVA ([…], PRESL.; Rate 0.063 kg/ha): 9.0; MOOVA ([…], PRESL.; Rate 0.125 kg/ha): 9.0; MOOVA ([…], PRESL.; Rate 0.250 kg/ha): 9.0; GLXMAW herbicidal rating ([6]; Rate 0.125 kg/ha): 2.0; GLXMAW herbicidal rating ([6]; Rate 0.250 kg/ha): 2.0; GLXMAW herbicidal rating ([6]; Rate 0.500 kg/ha): 2.0; Herbicidal effect rating, CYPIR (CYPERUS IRIA; 0.063 kg/ha): 9.0; Herbicidal effect rating, CYPIR (CYPERUS IRIA; 0.125 kg/ha): 9.0; Herbicidal effect rating, CYPIR (CYPERUS IRIA; 0.250 kg/ha): 9.0; Herbicidal effect rating, CYPIR (CYPERUS IRIA; 0.500 kg/ha): 9.0; CYPIR (CYPERUS IRIA; Rate 0.031 kg/ha): 9.0; CYPIR (CYPERUS IRIA; Rate 0.063 kg/ha): 9.0; CYPIR (CYPERUS IRIA; Rate 0.125 kg/ha): 9.0; CYPIR (CYPERUS IRIA; Rate 0.250 kg/ha): 9.0
Cn1c(=O)[nH]c(=O)n(-c2cccc(Oc3ccc(C(F)(F)F)cc3Cl)c2)c1=O [E, reference compound]	0.0	–	–	2.0	2.5	3.0	3.5	–	–	1.5	2.0	2.0	3.0	0.0	–	–	0.0	0.0	1.0	2.0	MOOVA ([…], PRESL.; Rate 0.250 kg/ha): 0.0; MOOVA ([…], PRESL.; Rate 0.500 kg/ha): 0.0; MOOVA ([…], PRESL.; Rate 1.000 kg/ha): 0.0; SAGPY (SAGITTARIA PYGMAEA, L.; Rate 0.500 kg/ha): 0.0; SAGPY (SAGITTARIA PYGMAEA, L.; Rate 1.000 kg/ha): 0.0; CASOB (CASSIA OBTUSIFOLIA, L.; Rate 0.125 kg/ha): 0.0; CASOB (CASSIA OBTUSIFOLIA, L.; Rate 0.250 kg/ha): 0.0; CASOB (CASSIA OBTUSIFOLIA, L.; Rate 0.500 kg/ha): 0.0; CASOB (CASSIA OBTUSIFOLIA, L.; Rate 1.000 kg/ha): 0.0; CYPSE ([3]; Rate 0.500 kg/ha): 0.0; CYPSE ([3]; Rate 1.000 kg/ha): 0.0; CYPIR (CYPERUS IRIA; Rate 0.250 kg/ha): 0.0; CYPIR (CYPERUS IRIA; Rate 0.500 kg/ha): 0.0; CYPIR (CYPERUS IRIA; Rate 1.000 kg/ha): 0.0; ECHORC ([5]; Rate 0.250 kg/ha): 0.0; ECHORC ([5]; Rate 0.500 kg/ha): 0.0; ECHORC ([5]; Rate 1.000 kg/ha): 0.0
